One assay has as its system HeLa-MaTu-ADR cells. Kind of assay: Proliferation assay HeLa-MaTu-ADR (Method 3). In kind it is cell-based, human. The settings on record: 4 days, crystal violet, read-out: Inhibition of HeLa-MaTu-ADR cell proliferation IC50. The method, then: (§1) Cultivated tumour cells (HeLa, human cervical tumour cells, ATCC CCL-2; NCI-H460, human non-small cell lung carcinoma cells, ATCC HTB-177; A2780, human ovarian carcinoma cells, ECACC #93112519; DU 145, hormone-independent human prostate carcinoma cells, ATCC HTB-81; HeLa-MaTu-ADR, multidrug-resistant human cervical carcinoma cells, EPO-GmbH Berlin; Caco-2, human colorectal carcinoma cells, ATCC HTB-37; B16F10, mouse melanoma cells, ATCC CRL-6475) were plated at a density of 5,000 cells/well (DU145, HeLa-MaTu-ADR), 3,000 cells/well (NCI-H460, HeLa), 2,500 cells/well (A2780), 1,500 cells/well (Caco-2), or 1,000 cells/well (B16F10) in a 96-well multititer plate in 200 μL of their respective growth medium supplemented 10% fetal calf serum. After 24 hours, the cells of one plate (zero-point plate) were stained with crystal violet (see below), while the medium of the other plates was replaced by fresh culture medium (200 μl), to which the test substances were added in various concentrations (0 μM, as well as in the range of 0.001-10 μM; the final concentration of the solvent dimethyl sulfoxide was 0.5%). The cells were incubated for 4 days in the presence of test substances. Cell proliferation was determined by staining the cells with crystal violet: the cells were fixed by adding 20 μl/measuring point of an 11% glutaric aldehyde solution for 15 minutes at room temperature. After three washing cycles of the fixed cells with water, the plates were dried at room temperature. The cells were stained by adding 100 μl/measuring point of a 0.1% crystal violet solution (pH 3.0). After three washing cycles of the stained cells with water, the plates were dried at room temperature. The dye was dissolved by adding 100 μl/measuring point of a 10% acetic acid solution. The extinction was determined by photometry at a wavelength of 595 nm. The change of cell number, in percent, was calculated by normalization of the measured values to the extinction values of the zero-point plate (=0%) and the extinction of the untreated (0 μm) cells (=100%). The IC50 values (inhibitory concentration at 50% of maximal effect) were determined by means of a 4 parameter fit.

The target of a further assay is T1, CDK2/CycE (Homo sapiens, UniProt P24941).
T1 construct: GST; purchased ProQinase GmbH (Freiburg, Germany); host or cells: insect cells (Sf9)
Briefly: CDK2/CycE kinase assay (Method 2a, TR-FRET). In kind it is biochemical. The conditions noted are these: 10 μM ATP. From the text:
2a. CDK2/CycE kinase assay:
CDK2/CycE-Inhibitory Activity of Compounds of the Present Invention was Quantified Employing the CDK2/CycE TR-FRET Assay as Described in the Following Paragraphs:
Recombinant fusion proteins of GST and human CDK2 and of GST and human CycE, expressed in insect cells (Sf9) and purified by Glutathion-Sepharose affinity chromatography, were purchased from ProQinase GmbH (Freiburg, Germany). As substrate for the kinase reaction biotinylated peptide biotin-Ttds-YISPLKSPYKISEG (C-terminus in amid form) was used which can be purchased e.g. form the company JERINI Peptide Technologies (Berlin, Germany).
For the assay 50 nl of a 100 fold concentrated solution of the test compound in DMSO was pipetted into a black low volume 384 well microtiter plate (Greiner Bio-One, Frickenhausen, Germany), 2 yl of a solution of CDK2/CycE in aqueous assay buffer [50 mM Tris/HCl pH 8.0, 10 mM MgCl2, 1.0 mM dithiothreitol, 0.1 mM sodium ortho-vanadate, 0.01% (v/v) Nonidet-P40 (Sigma)] were added and the mixture was incubated for 15 min at 22° C. to allow pre-binding of the test compounds to the enzyme before the start of the kinase reaction. […] The concentration of CDK2/CycE was adjusted depending of the activity of the enzyme lot and was chosen appropriate to have the assay in the linear range, typical concentrations were in the range of 130 ng/mL. The reaction was stopped by the addition of 5 yl of a solution of TR-FRET detection reagents (0.2 μM streptavidine-XL665 [Cisbio Bioassays, Codolet, France] and 1 nM anti-RB(pSer807/pSer811)-antibody from BD Pharmingen [#558389] and 1.2 nM LANCE EU-W1024 labeled anti-mouse IgG antibody [Perkin-Elmer, product no. AD0077]) in an aqueous EDTA-solution (100 mM EDTA, 0.2% (w/v) bovine serum albumin in 100 mM HEPES/NaOH pH 7.0).
The resulting mixture was incubated 1 h at 22° C. to allow the formation of complex between the phosphorylated biotinylated peptide and the detection reagents. Subsequently the amount of phosphorylated substrate was evaluated by measurement of the resonance energy transfer from the Eu-chelate to the streptavidine-XL. Therefore, the fluorescence emissions at 620 nm and 665 nm after excitation at 350 nm was measured in a TR-FRET reader, e.g. a Rubystar (BMG Labtechnologies, Offenburg, Germany) or a Viewlux (Perkin-Elmer). The ratio of the emissions at 665 nm and at […] was taken as the measure for the amount of phosphorylated substrate. The data were normalised (enzyme reaction without inhibitor=0% inhibition, all other assay components but no enzyme=100% inhibition).
For orientation: TR-FRET usually uses a lanthanide donor and a delayed reading to cut background.

The next assay concerns B16F10 cells. Briefly: Proliferation assay B16F10 (Method 3). The class given is cell-based, mouse. The conditions noted are these: 4 days, crystal violet, read-out: Inhibition of Bc6F10 cell proliferation IC50. The method, then:
as §1

The next assay deals with MOLM-13 cells. Kind of assay: Proliferation assay MOLM-13 (Method 3). The class given is cell-based, human. The settings on record: MOLM-13, 72-hour exposure, Cell Titre-Glo, read-out: Inhibition of MOLM-13 cell proliferation IC50. The method, then:
Non-adherent MOLM-13 human acute myeloid leukemia cells (DSMZ ACC 554) were seeded at a density of 5,000 cells/well in a 96-well multititer plate in 100 μL of growth medium supplemented 10% fetal calf serum. After 24 hours, cell viability of one plate (zero-point plate) was determined with the Cell Titre-Glo Luminescent Cell Viability Assay (Promega), while 50 μL of test compound containing medium was added to the wells of the other plates (final concentrations in the range of 0.001-10 μM and DMSO controls; the final concentration of the solvent dimethyl sulfoxide was 0.5%). Cell viability was assessed after 72-hour exposure with the Cell Titre-Glo Luminescent Cell Viability Assay (Promega). IC50 values (inhibitory concentration at 50% of maximal effect) were determined by means of a 4 parameter fit on measurement data which were normalized to vehicle (DMSO) treated cells (=100%) and measurement readings taken immediately before compound exposure (=0%).

In a further assay the test system is DU145 cells. Kind of assay: Proliferation assay DU145 (Method 3). The conditions noted are these: DU145, 4 days, crystal violet, read-out: Inhibition of DU145 cell proliferation IC50. The class given is cell-based, human. The method, then: as §1

pIC50: −log10 of the molar value. Where two headings read alike, the source gives them in different places.

As to `Cc1cc(CS(C)(=O)=NC#N)cc(Nc2ncc(F)c(-c3ccc(F)c4ccoc34)n2)c1` (single isomer, unassigned) [Example 15, [(3-{[5-Fluoro-4-(4-fluoro-1-benzofuran-7-yl)pyrimidin-2-yl]amino}-5-methylbenzyl)-(methyl)oxido-λ^6-sulfanylidene]cyanamide], the pIC50 is 6.96 in the assay with HeLa-MaTu-ADR cells; 7.02 against CDK2/CycE; 6.94 in the assay on B16F10 cells; 7.13 in the assay on MOLM-13 cells; 7.00 in the assay with DU145 cells.

In the case of `CS(=O)(Cc1cc(F)cc(Nc2ncc(F)c(-c3ccc(F)c4ccoc34)n2)c1)=NC#N` (single isomer, unassigned) [Example 8, [(3-Fluoro-5-{[5-fluoro-4-(4-fluoro-1-benzofuran-7-yl)pyrimidin-2-yl]amino}benzyl)(methyl)-oxido-λ^6-sulfanylidene]cyanamide], the pIC50 with HeLa-MaTu-ADR cells (Homo sapiens, 96 h) was 7.46; on CDK2/CycE, 7.21; with B16F10 cells (Mus musculus, B16-F10, 96 h), 7.25; in the assay on MOLM-13 cells (Homo sapiens, MOLM-13, 72 h) it was 7.47; in the assay with DU145 cells (Homo sapiens, DU-145, 96 h) it was 7.47.

For `CS(=N)(=O)Cc1cccc(Nc2ncc(F)c(-c3ccc(F)c4ccoc34)n2)c1` (single isomer, unassigned) [Example 5, 5-Fluoro-4-(4-fluoro-1-benzofuran-7-yl)-N-{3-[(S-methylsulfonimidoyl)-methyl]-phenyl}-pyrimidin-2-amine], the pIC50 is 6.72 with HeLa-MaTu-ADR cells (Homo sapiens, 96 h); 7.05 on CDK2/CycE; 6.59 in the assay on B16F10 cells (Mus musculus, B16-F10, 96 h); 6.94 in the assay with MOLM-13 cells (Homo sapiens, MOLM-13, 72 h); 6.73 in the assay with DU145 cells (Homo sapiens, DU-145, 96 h).

For `CS(=N)(=O)Cc1cc(Nc2ncc(F)c(-c3ccc(F)c4ccoc34)n2)cc(S(F)(F)(F)(F)F)c1` (racemic) [Example 18, (rac)-5-Fluoro-4-(4-fluoro-1-benzofuran-7-yl)-N-{3-[(S-methylsulfonimidoyl)methyl]-5-(pentafluoro-λ^6-sulfanyl)phenyl}pyrimidin-2-amine], the pIC50 was 6.94 with HeLa-MaTu-ADR cells (Homo sapiens, 96 h); 7.14 at CDK2/CycE; 6.77 in the assay on B16F10 cells (Mus musculus, B16-F10, 96 h); 7.52 in the assay with MOLM-13 cells (Homo sapiens, MOLM-13, 72 h); 6.85 with DU145 cells (Homo sapiens, DU-145, 96 h).

Take `CS(=O)(Cc1cc(F)cc(Nc2ncc(F)c(-c3ccc(F)c4ccoc34)n2)c1)=NC#N` (single isomer, unassigned) [Example 9, [(3-Fluoro-5-{[5-fluoro-4-(4-fluoro-1-benzofuran-7-yl)pyrimidin-2-yl]amino}benzyl)(methyl)-oxido-λ^6-sulfanylidene]cyanamide]: the pIC50 was 7.38 in the assay with HeLa-MaTu-ADR cells; 7.06 against CDK2/CycE; 7.28 in the assay with B16F10 cells; 7.62 in the assay on MOLM-13 cells; 7.47 in the assay with DU145 cells.

As to `CS(=N)(=O)Cc1cccc(Nc2ncc(F)c(-c3ccc(F)c4ccoc34)n2)c1` (racemic) [Example 4, (rac)-5-Fluoro-4-(4-fluoro-1-benzofuran-7-yl)-N-{3-[(S-methylsulfonimidoyl)-methyl]phenyl}-pyrimidin-2-amine], the pIC50 with HeLa-MaTu-ADR cells (Homo sapiens, 96 h) was 6.84; against CDK2/CycE it was 6.96; in the assay on B16F10 cells (Mus musculus, B16-F10, 96 h), 6.68; in the assay with MOLM-13 cells (Homo sapiens, MOLM-13, 72 h) it was 6.97; in the assay on DU145 cells (Homo sapiens, DU-145, 96 h) it was 6.77.

For the molecule `CS(=N)(=O)Cc1cc(F)cc(Nc2ncc(F)c(-c3ccc(F)c4ccoc34)n2)c1` (racemic) [Example 10, (rac)-5-Fluoro-4-(4-fluoro-1-benzofuran-7-yl)-N-{3-fluoro-5-[(S-methylsulfonimidoyl)-methyl]-phenyl}-pyrimidin-2-amine], the pIC50 against CDK2/CycE is 7.30; in the assay on B16F10 cells (Mus musculus, B16-F10, 96 h), 7.24; with MOLM-13 cells (Homo sapiens, MOLM-13, 72 h), 7.43; in the assay with DU145 cells (Homo sapiens, DU-145, 96 h) it was 7.14.

For `Cc1cc(CS(C)(=O)=NC#N)cc(Nc2ncc(F)c(-c3ccc(F)c4ccoc34)n2)c1` (racemic) [Example 13, (rac)-[(3-{[5-Fluoro-4-(4-fluoro-1-benzofuran-7-yl)pyrimidin-2-yl]amino}-5-methylbenzyl)-(methyl)oxido-λ^6-sulfanylidene]cyanamide], the pIC50 with HeLa-MaTu-ADR cells (Homo sapiens, 96 h) was 7.43; at CDK2/CycE, 7.39; in the assay on B16F10 cells (Mus musculus, B16-F10, 96 h), 7.31; in the assay with DU145 cells (Homo sapiens, DU-145, 96 h) it was 7.07.

On to `CS(=N)(=O)Cc1cc(F)cc(Nc2ncc(F)c(-c3ccc(F)c4ccoc34)n2)c1` (single isomer, unassigned) [Example 12, 5-Fluoro-4-(4-fluoro-1-benzofuran-7-yl)-N-{3-fluoro-5-[(S-methylsulfonimidoyl)-methyl]-phenyl}-pyrimidin-2-amine], for which the pIC50 in the assay on HeLa-MaTu-ADR cells is 7.06; on CDK2/CycE, 7.32; in the assay on B16F10 cells, 7.03; in the assay with DU145 cells, 7.21.

In the case of `CS(=N)(=O)Cc1cc(F)cc(Nc2ncc(F)c(-c3ccc(F)c4ccoc34)n2)c1` (single isomer, unassigned) [Example 11, 5-Fluoro-4-(4-fluoro-1-benzofuran-7-yl)-N-{3-fluoro-5-[(S-methylsulfonimidoyl)-methyl]-phenyl}-pyrimidin-2-amine], the pIC50 with HeLa-MaTu-ADR cells is 6.70; on CDK2/CycE it was 7.14; in the assay on B16F10 cells, 7.35; with DU145 cells (Homo sapiens, DU-145, 96 h), 7.39.

The values above are taken from patent US9884849B2, “Fluorinated benzofuranyl-pyrimidine derivatives containing a sulfoximine group” (Bayer Pharma Aktiengesellschaft, priority 2014, dated 2018).
